Patent US11384067B2, “Pyrazole n-linked carbamoyl cyclohexyl acids as LPA antagonists” (BRISTOL-MYERS SQUIBB COMPANY, priority 2017, dated 2022)

How the values were obtained:
IPF patients = settings: 26-week clinical trial; cited from earlier work
human LPA1 = target: T1, human LPA1 (Homo sapiens, UniProt Q92633); assay: LPA1 functional antagonist assay (LPA-induced calcium flux); assay type: cell-based; settings: CHO cells overexpressing human LPA1, 10 nM LPA, read-out: hLPA1 IC50
T1 construct: expressed in transfected cells; host or cells: Chinese hamster ovary (CHO) cells
Method: The effectiveness of compounds of the present invention as LPA1 inhibitors can be determined in an LPA1 functional antagonist assay as follows:
The cells were then equilibrated to room temperature for 30 minutes before the assay. […] IC50 values were determined by fitting data to a 4-parameter logistic equation (GraphPad Prism, San Diego Calif.).

nerve-injured mice = settings: pretreatment; cited from earlier work
[1] = tested on: human foetal lung fibroblasts; settings: cited from earlier work
UUO mice = settings: compared with LPA1 (-/-) mice; cited from earlier work
[2] = tested on: mouse epithelial renal cell line, MCT; settings: co-treatment with LPA, MCT cells; cited from earlier work
[3] = tested on: pancreatic cancer cell lines; settings: cited from earlier work

T1 sequence (Q92633 whole entry): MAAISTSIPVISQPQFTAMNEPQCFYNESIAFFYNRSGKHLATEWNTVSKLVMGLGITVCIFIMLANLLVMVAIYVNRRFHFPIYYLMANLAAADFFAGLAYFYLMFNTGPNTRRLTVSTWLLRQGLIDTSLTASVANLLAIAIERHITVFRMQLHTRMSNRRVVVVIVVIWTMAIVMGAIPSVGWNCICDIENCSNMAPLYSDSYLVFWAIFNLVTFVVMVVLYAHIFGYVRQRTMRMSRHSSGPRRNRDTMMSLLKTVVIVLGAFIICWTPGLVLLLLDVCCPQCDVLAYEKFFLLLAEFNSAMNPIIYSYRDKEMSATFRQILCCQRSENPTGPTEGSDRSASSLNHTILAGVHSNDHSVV

Row | SMILES | IC50 (human LPA1) [µM] | other results
1 | Cc1noc(-c2ccc(-c3ccc(C4(C(=O)O)CC4)cc3)cc2)c1NC(=O)O[C@H](C)c1ccccc1 [BMS-986020] | – | rate of FVC (forced vital capacity) decline (IPF patients): significantly reduce
2 | Cc1nc(-c2cnn(C)c2CNC(=O)OCc2ccccc2)ccc1O[C@H]1CCC[C@H](C(=O)O)C1 [Example 33, (1S,3S)-3-((6-(5-((((benzyloxy)carbonyl)amino)methyl)-1-methyl-1H-pyrazol-4-yl)-2-methylpyridin-3-yl)oxy)cyclohexane-1-carboxylic acid] | 0.013 | –
3 | CC[C@H](C)COC(=O)NCc1c(-c2ccc(O[C@H]3CCC[C@H](C(=O)O)C3)c(C)n2)cnn1C [Example 34, (1S,3S)-3-((2-methyl-6-(1-methyl-5-(((((S)-2-methylbutoxy)carbonyl)amino)methyl)-1H-pyrazol-4-yl)pyridin-3-yl)oxy)cyclohexane-1-carboxylic acid] | 0.02 | –
4 | Cc1nc(-c2cnn(C)c2CNC(=O)OCC2CCC2)ccc1O[C@H]1CCC[C@H](C(=O)O)C1 [Example 35, (1S,3S)-3-((6-(5-((((cyclobutyl-methoxy)carbonyl)amino)methyl)-1-methyl-1H-pyrazol-4-yl)-2-methyl-pyridin-3-yl)oxy)cyclohexane-carboxylic acid] | 0.01 | –
5 | CC[C@H](C)COC(=O)NCc1c(-c2ncc(O[C@H]3CCC[C@H](C(=O)O)C3)c(C)n2)cnn1C [Example 36, (1S,3S)-3-((4-methyl-2-(I-methyl-5-(((((S)-2-methylbutoxy)carbonyl)amino)methyl)-1H-pyrazol-4-yl)pyrimidin-5-yl)oxy)cyclohexane-1-carboxylic Acid] | 0.031 | –
6 | Cc1nc(-c2cnn(C)c2CNC(=O)OCc2ccccc2)ncc1O[C@H]1CCC[C@H](C(=O)O)C1 [Example 37, (1S,3S)-3-((2-(5-((((benzyloxy)carbonyl)amino)methyl)-1-methyl-1H-pyrazol-4-yl)-4-methylpyrimidin-5-yl)oxy)cyclohexane-1-carboxylic Acid] | 0.016 | –
7 | Cc1nc(-c2cnn(C)c2CNC(=O)OCC(C)C)ncc1O[C@H]1CCC[C@H](C(=O)O)C1 [Example 38, (1S,3S)-3-((2-(5-(((isobutoxy-carbonyl)amino)methyl)-1-methyl-1H-pyrazol-4-yl)-4-methylpyrimidin-5-yl)oxy)cyclohexane-1-carboxylic acid] | 0.218 | –
8 | Cc1nc(-c2cnn(C)c2NC(=O)OC(C)(C)C)ncc1O[C@H]1CCC[C@H](C(=O)O)C1 [Example 39, (1S,3S)-3-((2-(5-((tert-butoxycarbonyl)amino)-1-methyl-1H-pyrazol-4-yl)-4-methylpyrimidin-5-yl)oxy)cyclohexane-1-carboxylic Acid] | 1.52 | –
9 | Cc1nc(-c2cnn(C)c2NC(=O)O[C@H](C)c2ccccc2)ncc1O[C@H]1CCC[C@H](C(=O)O)C1 [Example 40, (1S,3S)-3-((4-methyl-2-(1-methyl-5-((((R)-1-phenylethoxy)carbonyl)amino)-1H-pyrazol-4-yl)pyrimidin-5-yl)oxy)cyclohexane-1-carboxylic acid] | 0.105 | –
10 | Cc1nc(-c2cnn(C)c2NC(=O)O[C@H](C)C2CC2)ncc1O[C@H]1CCC[C@H](C(=O)O)C1 [Example 41, (1S,3S)-3-((2-(5-((((R)-1-cyclopropyl-ethoxy)carbonyl)amino)-1-methyl-1H-pyrazol-4-yl)-4-methylpyrimidin-5-yl)oxy)cyclohexane-1-carboxylic acid] | 0.08 | –
11 | CCCCOC(=O)Nc1c(-c2ncc(O[C@H]3CCC[C@H](C(=O)O)C3)c(C)n2)cnn1C [Example 42, (1S,3S)-3-((2-(5-((butoxycarbonyl)amino)-1-methyl-1H-pyrazol-4-yl)-4-methylpyrimidin-5-yl)oxy)cyclohexane-1-carboxylic acid] | 0.239 | –
12 | Cc1nc(-c2cnn(C)c2NC(=O)OCC(C)C)ncc1O[C@H]1CCC[C@H](C(=O)O)C1 [Example 43] | 0.564 | –
13 | Cc1nc(-c2cnn(C)c2NC(=O)OCC2CC2)ncc1O[C@H]1CCC[C@H](C(=O)O)C1 [Example 44, (1S,3S)-3-((2-(5-(((cyclopropyl-methoxy)carbonyl)amino)-1-methyl-1H-pyrazol-4-yl)-4-methylpyrimidin-5-yl)oxy)cyclohexane-1-carboxylic acid] | 0.995 | –
14 | C[C@@H](N)[C@H]1CC[C@H](C(=O)Nc2ccncc2)CC1 [Example Y-27632] | – | allodynia and hyperalgesia (nerve-injured mice): completely abolished
15 | Cc1noc(-c2ccc(CSCCC(=O)O)cc2)c1NC(=O)OC(C)c1ccccc1Cl (centres unmarked) [Ki16425] | – | chemotaxis of human foetal lung fibroblasts induced by BAL from IPF patients [1]: blocked; fibroblast chemotactic activity in bronchoalveolar lavage samples of IPF subjects [1]: inhibited; development of renal fibrosis in UUO mice (UUO mice): closely resembled the profile of LPA1 (−/−) mice; LPA induction of CTGF expression [2]: almost completely suppressed; in vitro migration in response to LPA and ascites from pancreatic cancer patients [3]: effectively blocked; LPA-induced and ascites-induced invasion activity ([3]; highly peritoneal metastatic pancreatic cancer cell line): blocked
